Where “and” joins values, the source holds several entries; their conditions need not be identical. Equal entries are not always repeated.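 1) Cells in 96-well plates. 2) Compound, 48 h, 5 concentrations. 3) Linear interpolation between surrounding doses. 4) Unreached endpoint = highest concentration. The concentration for 50% growth inhibition is given as GI50. TGI denotes the concentration required for complete inhibition of growth.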
Experiments:
Experiment in all cases: NCI anticancer screen, dose series, 48 h
BT-549 breast = tested on: BT-549 breast
CCRF-CEM leukemia = tested on: CCRF-CEM leukemia
HS 578T breast = tested on: HS 578T breast
OVCAR-5 ovarian = tested on: OVCAR-5 ovarian
OVCAR-8 ovarian = tested on: OVCAR-8 ovarian
SF-539 CNS = tested on: SF-539 CNS
SK-OV-3 ovarian = tested on: SK-OV-3 ovarian
SN12C renal = tested on: SN12C renal
SNB-75 CNS = tested on: SNB-75 CNS
U251 CNS = tested on: U251 CNS

| Structure (SMILES) | GI50 (BT-549 breast) | TGI (BT-549 breast) | GI50 (CCRF-CEM leukemia) | TGI (CCRF-CEM leukemia) | GI50 (HS 578T breast) | TGI (HS 578T breast) | GI50 (OVCAR-5 ovarian) | TGI (OVCAR-5 ovarian) | GI50 (OVCAR-8 ovarian) | TGI (OVCAR-8 ovarian) | GI50 (SF-539 CNS) | TGI (SF-539 CNS) | GI50 (SK-OV-3 ovarian) | TGI (SK-OV-3 ovarian) | GI50 (SN12C renal) | TGI (SN12C renal) | GI50 (SNB-75 CNS) | TGI (SNB-75 CNS) | GI50 (U251 CNS) | TGI (U251 CNS) |
| --- | --- | --- | --- | --- | --- | --- | --- | --- | --- | --- | --- | --- | --- | --- | --- | --- | --- | --- | --- | --- |
| O=C(Nc1cccc(-c2ccc(Cl)c(C(F)(F)F)c2)c1)C1CCN(Cc2cccc3cccnc23)CC1 | 1.65 µM | 3.18 µM | 2.19 µM | 5.85 µM | 2.14 µM | 4.94 µM | 1.57 µM | 2.92 µM | 1.93 µM | 4.19 µM | 1.76 µM | 3.16 µM | 1.76 µM | 3.37 µM | 1.6 µM | 3.03 µM | 1.39 µM | 2.71 µM | 1.71 µM | 3.29 µM |
| CCC(=O)Nc1ccc(C)c(-c2ccc(C(=O)NCC3CC3)cc2)c1 | > 25 µM | > 25 µM | > 25 µM | > 25 µM | > 25 µM | > 25 µM | > 25 µM | > 25 µM | > 25 µM | > 25 µM | > 25 µM | > 25 µM | > 25 µM | > 25 µM | > 25 µM | > 25 µM | > 25 µM | > 25 µM | > 25 µM | > 25 µM |
| Cc1ccc(NC(=O)CSc2nnc3n(Cc4ccccc4)c(=O)c4c(C)c(C(N)=O)sc4n23)cc1 | 12.7 µM | 72 µM | 20.1 µM | 46.1 µM | 5.22 µM | 77.6 µM | 64.7 µM | > 100 µM | > 100 µM | > 100 µM | 21.7 µM | > 100 µM | 4.28 µM | 65.4 µM | > 100 µM | > 100 µM | 5.72 µM | 23.8 µM | 5.17 µM | 52.9 µM |
| CC(=[N-])N1CCC[C@@H](Nc2c3ccccc3nc3ccccc23)C1.[Cl][Pt].[NH-]CCC[NH-] | 2.9 µM | 64.7 µM | 1.58 µM | > 100 µM | 3.33 µM | > 31.4 µM | 2.89 µM | 36.4 µM | 1.04 µM | > 100 µM | 2.53 µM | 18.1 µM | 2.43 µM | > 100 µM | 0.0214 µM | – | 2.72 µM | 10.1 µM | 1.58 µM | > 100 µM |
| Cc1cn2c(/C=N/N=C(N)N)c(-c3ccccn3)nc2s1 | 7.69 µM | 25.9 µM | 12.3 µM | > 100 µM | 19.5 µM | 55.6 µM | 22.3 µM | 46 µM | 13.9 µM | > 56.2 µM | 3.35 µM | 14.4 µM | 26.8 µM | > 65 µM | 14.7 µM | 29.5 µM | 7.66 µM | 19.3 µM | 19.1 µM | 45.1 µM |
| CCOC(=O)c1cc(-c2ccccc2)[nH]c1N/N=C/c1ccc(Cl)cc1 | 46.8 µM | > 100 µM | 5.86 µM | > 100 µM | 77.7 µM | > 100 µM | > 100 µM | > 100 µM | > 100 µM | > 100 µM | > 100 µM | > 100 µM | > 100 µM | > 100 µM | > 100 µM | > 100 µM | > 100 µM | > 100 µM | > 100 µM | > 100 µM |
| Cc1ccc(NS(=O)(=O)c2cccc(C#N)c2)c2[nH]cc(C#N)c12 | – | 65.8 µM and 48.4 µM | 11.9 µM and 14.3 µM | > 100 µM | 16.4 µM and 20 µM | 78.8 µM and > 96.3 µM | 16.7 µM and 30.6 µM | > 92.7 µM | 19.1 µM and 15.8 µM | > 100 µM and 69.3 µM | 16.8 µM and 21.5 µM | > 81.2 µM | 0.829 µM and 0.361 µM | 63.4 µM and 74.1 µM | 25.5 µM and 27.3 µM | > 94.7 µM | 6.51 µM and 7.05 µM | 52.3 µM and 29.4 µM | 17.5 µM and 15.2 µM | > 100 µM |

Reference: PubChem BioAssay (NCI)
